Test results published in patent US9206198B2, “Inhibitors of the renal outer medullary potassium channel” (Merck Sharp & Dohme Corp., priority 2012, dated 2015).

target: hROMK (hKir1.1) (Homo sapiens (Human), UniProt P48048); test: Thallium Flux Assay (ROMK channel functional thallium flux assay, FLIPR-Tetra); assay type: cell-based; conditions: HEK293 cells stably expressing hROMK
Protocol: Cell Culture Conditions— HEK293 cells stably expressing hROMK (hKir1.1) were grown at 37° C. in a 10% CO2 humidified incubator in complete growth media: Dulbecco's Modified Eagle Medium supplemented with non-essential amino acids, Penicillin/Streptomycin/Glutamine, G418 and FBS. At >80% confluency, aspirate the media from the flask and rinse with 10 mL Calcium/Magnesium-free PBS. Add 5 mL of 1× trypsin (prepared in Ca/Mg Free PBS) to T-225 flask and return flask to 37° C./CO2 incubator for 2-3 minutes. To dislodge the cell, gently bang the side of the flask with your hand. Triturate the cells completely and then transfer the cells to 25 mL complete media. Centrifuge at 1,500 rpm for 6 min followed by resuspension in complete growth media and determine cell concentration. For typical re-seeding, 4E6 cells/T-225 flask will attain >80% confluency in 4 days. Under ideal growth conditions and appropriate tissue culture practices, this cell line is stable for 40-45 passages.
FluxOR Kit Components (Invitrogen F10017)
• FluxOR™ Reagent (Component A) • FluxOR™ Assay Buffer (Component B)—10× Concentrate • PowerLoad™ Concentrate (Component C)—100× Concentrate • Probenecid (Component D)—Lyophilized sample is kept at −20° C. Water soluble, 100×after solubilization in 1 mL water. Store at 4° C. • FluxOR™ Chloride-free Buffer (Component E)—5× Concentrate • Potassium sulfate (K2SO4) Concentrate (Component F)—125 mM in water. Store at 4° C. • Thallium sulfate (Tl2SO4) Concentrate (Component G)—50 mM in water. Store at 4° C. • DMSO (dimethyl sulfoxide, Component H)—1 mL (100%) Reagent Preparation: FluxOR Working Solutions • 1000× FluxOR™ Reagent: Reconstitute a vial of component A in 100 μl DMSO; Mix well; Store 10 μl aliquots at −20° C. • 1× FluxOR™ Assay Buffer: Dilute Component B 10-fold with water; Adjust pH to 7.4 with Hepes/NaOH; Filter and store at 4° C. • Probenecid/Assay Buffer: 100 mL of 1× FluxOR™ Assay Buffer; 1 mL of reconstituted component D; Store at 4° C. • Loading Buffer (per microplate): 10 μl 1000× FluxOR™ Reagent; 100 μl component C; 10 mL Probenecid/Assay Buffer • Compound Buffer (per microplate): 20 mL Probenecid/Assay Buffer; 0.3 mM ouabain (10 mM ouabain in water can be stored in amber bottle/aluminum foil at room temperature); Test compound • 1× FluxOR™ Chloride-Free Buffer: Prepare 1× working solution in water. Can be stored at room temperature • Stimulant Buffer (prepared at 5× final concentration in 1× FluxOR™ Chloride-Free Buffer): 7.5 mM Thallium sulfate and 0.75 mM Potassium sulfate (to give a final assay concentration of 3 mM Thallium 0.3 mM Potassium). Store at 4° C. when not in use. If kept sterile, this solution is good for months.
Assay Protocol—The ROMK channel functional thallium flux assay is performed in 384 wells, using the FLIPR-Tetra instrument. HEK-hKir1.1 cells are seeded in Poly-D-Lysine microplates and kept in a 37° C.-10% CO2 incubator overnight. On the day of the experiment, the growth media is replaced with the FluxOR™ reagent loading buffer and incubated, protected from light, at ambient temperature (23-25° C.) for 90 min. The loading buffer is replaced with assay buffer±test compound followed by 30 min incubation at ambient temperature, where the Thallium/Potassium stimulant is added to the microplate.
• 1. Seed HEK-hKir1.1 cells ([…] at 20,000 cells/well) in 384-well PDL coated Microplates • 2. Allow cells to adhere overnight in humidified 37° C./10% CO2 incubator • 3. Completely remove cell growth media from microplate and replace with 25 μl loading buffer • 4. Incubate Microplate at room temperature, protected form light, for 90 min • 5. Remove loading buffer and replace with 25 μl 1× Assay Buffer±test compound. • 6. Incubate microplate at room temperature, protected from light, for 30 min • 7. At FLIPR-Tetra 384: Add stimulant (Thallium/Potassium) solution to microplate and monitor fluorescence. Excitation=400 nm, Emission=460 & 580 nm. Collect data for 10 min.

hROMK (hKir1.1), sequence (P48048 whole entry): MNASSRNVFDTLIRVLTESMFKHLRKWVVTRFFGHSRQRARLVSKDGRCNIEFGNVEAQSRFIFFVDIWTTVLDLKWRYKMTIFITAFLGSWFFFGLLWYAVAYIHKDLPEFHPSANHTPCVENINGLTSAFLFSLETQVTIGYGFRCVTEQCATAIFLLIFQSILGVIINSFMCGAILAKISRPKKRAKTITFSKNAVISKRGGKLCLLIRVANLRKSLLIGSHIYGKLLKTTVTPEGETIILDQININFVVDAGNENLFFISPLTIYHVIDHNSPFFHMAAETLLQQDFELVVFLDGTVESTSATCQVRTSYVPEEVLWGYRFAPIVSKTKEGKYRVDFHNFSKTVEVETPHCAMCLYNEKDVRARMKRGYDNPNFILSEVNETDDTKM

| SMILES | IC50 |
| --- | --- |
| CC1=C(N2CCC3(CCN(C[C@H](O)c4ccc5c(c4C)COC5=O)CC3F)C2=O)COC1=O (single isomer, unassigned) [Example 27] | 210 nM |
| CC1=C(N2CCC3(CCN(C[C@H](O)c4ccc5c(c4C)COC5=O)CC3F)C2=O)COC1=O (single isomer, unassigned) [Example 28] | 190 nM |
| CC1=C(N2C(=O)C3(CCN(C[C@H](O)c4ccc5c(c4C)COC5=O)CC3)CC2C)COC1=O (single isomer, unassigned) [Example 29] | 70 nM |
| Cc1c([C@@H](O)CN2C3CCC2CC2(CC(C)N(C4=CC(=O)OC4)C2=O)C3)ccc2c1COC2=O (single isomer, unassigned) [Example 40] | 20 nM |
| Cc1c([C@H](O)CN2C3CCC2CC2(CC(C)N(C4=CC(=O)OC4)C2=O)C3)ccc2c1COC2=O (single isomer, unassigned) [Example 42] | 100 nM |
| CCC1CC2(CCN(C[C@H](O)c3ccc4c(c3C)COC4=O)CC2)C(=O)N1C1=CC(=O)OC1 (single isomer, unassigned) [Example 67] | 20 nM |
| CCc1c(C(O)CN2CCC3(CC2)CCN(C2=C(C)C(=O)OC2)C3=O)ccc2c1COC2=O (single isomer, unassigned) [Example 74] | 200 nM |
| CC1=C(N2CCC3(CCN(CC(O)c4ccc5c(c4C4CC4)COC5=O)CC3)C2=O)COC1=O (single isomer, unassigned) [Example 77] | 240 nM |
| CC1=C(N2CCC3(CCN(CC(O)c4ccc5c(c4Cl)COC5=O)CC3)C2=O)COC1=O (single isomer, unassigned) [Example 78] | 270 nM |
| CC1=C(N2CCC3(CCN(CC(O)c4ccc5c(c4F)COC5=O)CC3)C2=O)COC1=O (single isomer, unassigned) [Example 81] | 190 nM |
| CC1=C(N2CCC3(CCN(C(CO)Cc4ccc5c(c4C)COC5=O)CC3)C2=O)COC1 (single isomer, unassigned) [Example 84A] | 60 nM |
| CC1=C(N2CCC3(CCN(C(CO)Cc4ccc5c(c4C)COC5=O)CC3)C2=O)COC1 (single isomer, unassigned) [Example 84B] | 70 nM |
| CC1=C(N2CCC3(CCN(C(C)(C)C(O)c4ccc5c(c4C)COC5=O)CC3)C2=O)COC1=O (single isomer, unassigned) [Example 85A] | 120 nM |
| CC1=C(N2CCC3(CCN(C(C)(C)C(O)c4ccc5c(c4C)COC5=O)CC3)C2=O)COC1=O (single isomer, unassigned) [Example 85B] | 10 nM |
| CC1=C(N2CCC3(CCN(CCc4ccc5c(c4C)COC5=O)CC3)C2=O)COC1=O [Example 1, 8-(2-(4-methyl-1-oxo-1,3-dihydroisobenzofuran-5-yl)ethyl)-2-(4-methyl-5-oxo-2,5-dihydrofuran-3-yl)-2,8-diazaspiro[4.5]decan-1-one] | 10 nM |
| CO[C@@H](CN1CCC2(CC1)C[C@H](C)N(C1=CC(=O)OC1)C2=O)c1ccc2c(c1C)COC2=O [Example 2] | 50 nM |
| Cc1c([C@@H](O)CN2CCC3(CC2)CC(C)N(C2=CC(=O)OC2)C3=O)ccc2c1COC2=O (stereo partly drawn) [Example 6, 8-((R)-2-Hydroxy-2-(4-methyl-1-oxo-1,3-dihydroisobenzofuran-5-yl)ethyl)-3-methyl-2-(5-oxo-2,5-dihydrofuran-3-yl)-2,8-diazaspiro[4.5]decan-1-one] | 30 nM |
| Cc1c([C@@H](O)CN2CCC3(CC2)C[C@@H](C)N(C2=CC(=O)OC2)C3=O)ccc2c1COC2=O [Example 6A] | 20 nM |

| SMILES | IC50 |
| --- | --- |
| CC1=C(N2CCC3(CCN(C[C@@H](O)c4ccc5c(c4C)COC5=O)CC3)C2=O)COC1=O [Example 8, 8-[(2S)-2-hydroxy-2-(4-methyl-1-oxo-1,3-dihydro-2-benzofuran-5-yl)ethyl]-2-(4-methyl-5-oxo-2,5-dihydrofuran-3-yl)-2,8-diazaspiro[4.5]decan-1-one] | 30 nM |
| CC1=C(N2CCC3(CCN(C[C@H](O)c4ccc5c(c4C)COC5=O)CC3O)C2=O)COC1=O (stereo partly drawn) [Example 26] | 230 nM |
| Cc1c([C@@H](O)CN2CCC3(CC2)CCN(C2=C(C4CC4)C(=O)OC2)C3=O)ccc2c1COC2=O [Example 31] | 40 nM |
| CC1=C(N2CC(=O)C3(CCN(C[C@H](O)c4ccc5c(c4C)COC5=O)CC3)C2=O)COC1=O [Example 36] | 30 nM |
| CC1=C(N2CCC3(CCN(C[C@@H](O)c4cc5c(cc4C)C(=O)OC5)CC3)C2=O)COC1=O [Example 37] | 30 nM |
| CC1=C(N2CCC3(CCN(C[C@H](O)c4cc5c(cc4C)C(=O)OC5)CC3)C2=O)COC1=O [Example 38] | 20 nM |
| Cc1c([C@@H](O)CN2C3CCC2CC2(CC(C)N(C4=CC(=O)OC4)C2=O)C3)ccc2c1COC2=O (stereo partly drawn) [Example 39] | 20 nM |
| Cc1c([C@H](O)CN2C3CCC2CC2(CC(C)N(C4=CC(=O)OC4)C2=O)C3)ccc2c1COC2=O (stereo partly drawn) [Example 41] | 240 nM |
| Cc1c([C@@H](O)CN2CCC3(C=CN(C4=CC(=O)OC4)C3=O)CC2)ccc2c1COC2=O [Example 44] | 40 nM |
| CC1=C(N2CCC3(CC4CN(C)CC(C3)N4C[C@H](O)c3ccc4c(c3C)COC4=O)C2=O)COC1=O (stereo partly drawn) [Example 45] | 160 nM |
| CC1=C(N2CCC3(CC4CN(C)CC(C3)N4C[C@@H](O)c3ccc4c(c3C)COC4=O)C2=O)COC1=O (stereo partly drawn) [Example 46] | 140 nM |
| CC1=C(N2CCC3(CCN(C[C@H](F)c4ccc5c(c4C)COC5=O)CC3)C2=O)COC1=O [Example 47, 8-[(2R)-2-fluoro-2-(4-methyl-1-oxo-1,3-dihydro-2-benzofuran-5-yl)ethyl]-2-(4-methyl-5-oxo-2,5-dihydrofuran-3-yl)-2,8-diazaspiro[4.5]decan-1-one] | 40 nM |
| CC1=C(N2CCC3(CCN(C[C@@H](F)c4ccc5c(c4C)COC5=O)CC3)C2=O)COC1=O [Example 48, 8-[(2S)-2-fluoro-2-(4-methyl-1-oxo-1,3-dihydro-2-benzofuran-5-yl)ethyl]-2-(4-methyl-5-oxo-2,5-dihydrofuran-3-yl)-2,8-diazaspiro[4.5]decan-1-one] | 20 nM |
| CO[C@@H](CN1CCC2(CC1)CCN(C1=C(C)C(=O)OC1)C2=O)c1ccc2c(c1C)COC2=O [Example 49, 8-[(2R)-2-methoxy-2-(4-methyl-1-oxo-1,3-dihydro-2-benzofuran-5-yl)ethyl]-2-(4-methyl-5-oxo-2,5-dihydrofuran-3-yl)-1-oxo-2-aza-8-azoniaspiro[4.5]decane] | 40 nM |
| CCO[C@@H](CN1CCC2(CC1)CCN(C1=C(C)C(=O)OC1)C2=O)c1ccc2c(c1C)COC2=O [Example 50, 8-[(2R)-2-ethoxy-2-(4-methyl-1-oxo-1,3-dihydro-2-benzofuran-5-yl)ethyl]-2-(4-methyl-5-oxo-2,5-dihydrofuran-3-yl)-2,8-diazaspiro[4.5]decan-1-one] | 30 nM |
| CC1=C(N2CCC3(CCN([C@@H](C)[C@H](O)c4ccc5c(c4C)COC5=O)CC3)C2=O)COC1=O [Example 53A] | 10 nM |
| CC1=C(N2CCC3(CCN(CC(NC4CC4)c4ccc5c(c4C)COC5=O)CC3)C2=O)COC1=O (stereo not drawn) [Example 54, 8-(2-(cyclopropylamino)-2-(4-methyl-1-oxo-1,3-dihydroisobenzofuran-5-yl)ethyl)-2-(4-methyl-5-oxo-2,5-dihydrofuran-3-yl)-2,8-diazaspiro[4.5]decan-1-one] | 150 nM |
| CC1=C(N2CCC3(CCN(CC(NCC(F)F)c4ccc5c(c4C)COC5=O)CC3)C2=O)COC1=O (stereo not drawn) [Example 55] | 250 nM |
